Experimental data: PubChem BioAssay (NCI)
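Protocol summary: plate cells (96-well), add compound at 5 concentrations, incubate 48 h, interpolate endpoints linearly. TGI: total growth inhibition.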

Tests used:
Assay in all cases: growth of human tumour cells (NCI), 48 h
HL-60(TB) leukemia = tested on: HL-60(TB) leukemia
SF-268 CNS = tested on: SF-268 CNS
NCI/ADR-RES ovarian = tested on: NCI/ADR-RES ovarian
SK-MEL-2 melanoma = tested on: SK-MEL-2 melanoma
HCC-2998 colon = tested on: HCC-2998 colon
DU-145 prostate = tested on: DU-145 prostate
HT29 colon = tested on: HT29 colon
MOLT-4 leukemia = tested on: MOLT-4 leukemia
A549 NSCLC = tested on: A549 NSCLC
A498 renal = tested on: A498 renal

| SMILES | TGI (HL-60(TB) leukemia) | TGI (SF-268 CNS) | TGI (NCI/ADR-RES ovarian) | TGI (SK-MEL-2 melanoma) | TGI (HCC-2998 colon) | TGI (DU-145 prostate) | TGI (HT29 colon) | TGI (MOLT-4 leukemia) | TGI (A549 NSCLC) | TGI (A498 renal) |
| --- | --- | --- | --- | --- | --- | --- | --- | --- | --- | --- |
| COc1ccc(C(=O)/C=C/c2ccc(OCCCOc3ccc(/C=C/C(=O)c4ccc(OC)c(OC)c4)cc3)cc2)cc1OC | > 100 µM | > 100 µM | > 100 µM | > 100 µM | > 100 µM | > 100 µM | > 100 µM | > 100 µM | > 100 µM |  |
| Cn1cnc(/C=C/C#N)c1 |  | > 100 µM | > 100 µM | > 100 µM | > 100 µM |  | > 100 µM | > 100 µM | > 100 µM | > 100 µM |
| NNc1nnc(-c2ccccc2)nc1Cc1ccccc1 | 38 µM | > 100 µM |  | > 100 µM | > 100 µM |  | > 100 µM | > 100 µM | > 100 µM |  |
| C/C(=N\NC(=O)c1ccncc1)c1cccc(C(F)(F)F)c1 | > 10 µM | > 10 µM | > 10 µM |  | > 10 µM | > 10 µM | > 10 µM | > 10 µM | > 10 µM |  |
| O=C1c2ccccc2C2(c3ccc(Cl)cc3)N[C@@H]3CCCC[C@@H]3N12 (stereo partly specified) | > 100 µM | > 100 µM |  | > 100 µM | > 100 µM | > 100 µM |  | > 100 µM | > 100 µM | > 100 µM |
| COc1ccccc1NC(=O)CSC(N)=O | > 100 µM | > 100 µM |  | 61.4 µM | > 100 µM |  | > 100 µM |  | > 100 µM | > 100 µM |
| c1ccc2c(c1)ccc1nc(-c3ccc4c(c3)OCO4)c3c(c12)CCC3 |  | > 100 µM | > 100 µM | > 100 µM | > 100 µM |  | > 100 µM | > 100 µM | > 100 µM | > 100 µM |
| CCn1c(O)c(C(=O)NC(C)c2ccc([N+](=O)[O-])cc2)c(=O)n(CC)c1=S (stereo unspecified) | 5.11 µM | 15.3 µM |  | 2.72 µM | 10.7 µM | 8.98 µM | 5.17 µM | 5.52 µM | 11.5 µM |  |
| CC(C)NCCNC(=O)c1ccccc1Nc1c(Cl)cccc1Cl | 24.8 µM | 34.1 µM |  |  |  |  | 17.5 µM | 27.3 µM | 33.9 µM |  |
| Cc1cccc(=O)c([O-])c1.Cc1cccc(=O)c([O-])c1.Cc1cccc(=O)c([O-])c1.Cc1cccc(=O)c([O-])c1.[Th+4] | 4.18 µM | > 100 µM |  | 97.5 µM | > 100 µM |  | > 49.4 µM | > 27 µM | > 100 µM | 81.6 µM |
